Source: article PMC11672299, “Conjugation of Polycationic Peptides Extends the Efficacy Spectrum of β‐Lactam Antibiotics” (Advanced Science, 2024)

Tests used:
HEK‐293 cells = test: Cytotoxicity assay (PrestoBlue viability); assay type: cell-based, human; settings: HEK‐293, up to 512 µg mL^−1, 24 h
Experimental: (§1) To exclude any cytotoxic effects on mammalian cells prior to in vivo studies, the viability of the cell lines HEP‐G2 (hepatocellular carcinoma) and HEK‐293 (human […] embryonal kidney) after incubation with different concentrations of the β‐lactam–peptide conjugates were determined. For the viability assay, 10^4 cells per well were seeded in a 96‐well half area microplate and incubated overnight in a humidified 5% CO2 atmosphere at 37 °C. The next day, the conjugates were twofold serially diluted in PBS and added to the cells to obtain final concentrations ranging from 1–512 µg mL^−1. Cells were then incubated with the antibiotics in a humidified 5% CO2 atmosphere at 37 °C for a further 24 h. PrestoBlue HS Cell Viability Reagent was then added to the wells and the plates again were incubated in a humidified 5% CO2 atmosphere at 37 °C for 1 h. Afterwards, the absorption at 570 nm and 600 nm (reference) using an Infinite M200 PRO microplate reader (Tecan, Männedorf, Switzerland) was measured. Cell viability was calculated using the untreated control cells as a reference for 100% alive cells.

HEPG2 cells = test: Cytotoxicity assay (PrestoBlue viability); assay type: cell-based, human; settings: HEPG2, up to 512 µg mL^−1, 24 h
Experimental: as §1

[1] = system: S. aureus LAC* lux USA300 (MRSA); test: MIC by broth microdilution; assay type: cell-based; settings: Staphylococcus aureus
Experimental: (§2) The minimum inhibitory concentration (MIC) of the β‐lactam–peptide conjugates was determined by broth microdilution as previously described.^[ [17] ^] Briefly, in cation‐adjusted MHB II medium, a twofold serial dilution of the compounds was prepared in 96‐well round‐bottom polystyrene or polypropylene microtiter plates with each well containing 50 µL. The plates were inoculated with 50 µL bacterial suspension and the final inoculum, in a total volume of 100 µL, contained 5 × 10^5 CFU mL^−1. The microplates were incubated for 20 h at 37 ± 1 °C. The lowest concentration preventing visible bacterial growth was considered the MIC value. For susceptibility testing of combinations of β‐lactamase‐inhibitors with either a β‐lactam antibiotic or a β‐lactam–peptide conjugate, fixed concentrations of the inhibitors according to the EUCAST (European Committee on Antimicrobial Susceptibility Testing) guidelines (clavulanic acid = 2 mg L^−1, avibactam = 4 mg L^−1) were used.

B. subtilis DSM 10 = test: Time‐kill assay; assay type: cell-based; settings: for killing mechanism (time‐kill kinetics, CFU mL^−1): 50 or 100 µM, over 24 h
Experimental: For determination of time‐kill kinetics of the β‐lactam–peptide conjugates and their parent β‐lactams, 14 mL of cation‐adjusted MHB II medium was inoculated with an B. subtilis DSM 10 overnight culture to obtain an OD600 of 0.5, corresponding to ≈10^8 CFU mL^−1. To this exponentially growing culture, 50 or 100 µM of each of the antibiotics was added except for a negative control culture which was treated with only water. The bacterial cultures were incubated at 30 °C and 200 rpm and the OD600 was measured on 1 mL aliquots taken at 0, 10, 30, 45, 60, 90, 120, 240, 360, 480 and 1440 min. Additionally, at the same time points, 15 µL of serial tenfold dilutions of the bacterial suspension were plated onto MHB II agar plates. The agar plates were incubated overnight at 30 °C. The next day, bacterial colonies were counted and the CFU mL^−1 were calculated (limit of detection: 10^1.8 CFU mL^−1). For each antibiotic the assay was performed in triplicate (three biological replicates).

[2] = system: K. pneumoniae 0 6841/Nr.45 (Oxa48); test: microbe, parasite or virus in culture; assay type: cell-based; settings: Klebsiella pneumoniae, 20 h; K. pneumoniae 06841/Nr.45 (Oxa48); combinations: avibactam fixed 4 mg L^−1, clavulanic acid 2 mg L^−1; median (n = 3)
Method in brief: (§3)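 Susceptibility is determined by broth microdilution, with inocula of 5 × 10^5 CFU mL^−1 in cation-adjusted MHB II and 20 h incubation at 37 ± 1 °C. For inhibitor combinations, clavulanic acid (2 mg L^−1) or avibactam (4 mg L^−1) is held constant following EUCAST guidance.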

[3] = system: C. freundii Tü21‐052 (clinical isolate); test: microbe, parasite or virus in culture; assay type: cell-based; settings: Citrobacter freundii; C. freundii Tü21‐052; median (n = 3); read-out: MIC
Method in brief: as §3

[4] = system: E. casseliflavus (ATCC 700 327); test: Spontaneous resistance rate; assay type: cell-based; settings: E. casseliflavus ATCC 700 327, agar with 16 µg mL^−1 CTZ‐R6
Experimental: The rate of spontaneous resistance of E. casseliflavus (ATCC 700 327) against CTZ‐R6 was investigated as previously described.^[ [33] ^] A bacterial suspension of ATCC 700 327 was adjusted to an OD600 of 1 with 0.9% NaCl, corresponding to a theoretical concentration of 2 × 10^8 CFU mL^−1. 250 µL of the suspension were plated on 10 cation‐adjusted MHB II agar plates containing 16 µg mL^−1 CTZ‐R6 and incubated at 37 °C for 18 h. As concentration control, the bacterial inoculum (OD600 = 1) was diluted and plated on antibiotic‐free cation adjusted MHB II agar plates and incubated at 37 °C for 18 h. The number of colonies on both types of plates was counted and the spontaneous resistance rate was calculated accordingly: (2) SpontaneousResistanceRate=#coloniesonantibioticplates/#coloniesoncontrolplatexdilutionfactorx2.5

A. bohemicus DSM 100419 = test: MIC by broth microdilution; assay type: cell-based; settings: median (n = 3)
Experimental: as §2

[5] = Scintigraphy and biodistribution in rats; parameters: species or system Wistar rats; settings: rat, in vivo, iv
Experimental: To enable radiolabeling of the β‐lactam–peptide conjugates, their peptide sequence was elongated by an N‐terminal D‐tyrosine. […] The solution was mixed with 5 MBq of iodine‐125 and radiolabeling was performed using the chloramine T method as previously described.^[ [35] ^] After 30 s, the reaction was quenched by the addition of a saturated methionine solution and the radiolabeled compound purified by reversed‐phase preparative radio‐HPLC (1100 series, Agilent Technologies, Santa Clara, CA, USA). Analysis was performed by analytical radio‐HPLC (1100 series, Agilent Technologies, Santa Clara, CA, USA) using a linear gradient from water (+ 0.1% TFA) to acetonitrile (+ 0.1% TFA) over 5 min at a flow rate of 2 mL min^−1.
All animal studies were approved by the Animal Care and Use committees from Regierungspräsidium Karlsruhe (Karlsruhe, Germany; reference number 35–9185.81/G‐199/21; date of approval: November 23, 2021). […]
The biodistribution of CTZ‐yR6 in Wistar rats was determined at 10 min and 3 h post injection. […] Using a Cobra γ‐counter (Packard Bioscience, Meriden, CT, USA), the amount of radioactivity in each sample was measured which was then used in combination with the organ weight and injected dose for the calculation of the […] per gram of tissue (%ID g^−1).

| Structure (SMILES) | cytotoxicity (cell viability) (HEK‐293 cells) | cytotoxicity (cell viability) (HEPG2 cells) | MIC [1] | killing mechanism (time‐kill kinetics, CFU mL^−1) (B. subtilis DSM 10) | MIC [2] | MIC [3] | spontaneous resistance rate [4] | antimicrobial activity (rank among CTZ–peptide conjugates) (A. bohemicus DSM 100419) | drop in CFU (to the detection limit) (B. subtilis DSM 10; 100 µM, after 6 h) | biodistribution (organ accumulation) [5] |
| --- | --- | --- | --- | --- | --- | --- | --- | --- | --- | --- |
| CC(C)(O/N=C(\C(=O)N[C@@H]1C(=O)N2C(C(=O)[O-])=C(C[n+]3ccccc3)CS[C@H]12)c1csc(N)n1)C(=O)O [CTZ, ceftazidime, reference compound] | no significant cytotoxicity | no significant cytotoxicity | 16 µg/mL | time‐dependent killing mechanism | > 64 µg/mL | 0.25 µg/mL | – | – | – | – |
| CC(C)(O/N=C(\C(=O)N[C@@H]1C(=O)N2C(C(=O)[O-])=C(C[n+]3ccccc3)CS[C@H]12)c1csc(N)n1)C(=O)NCCCCCCN1C(=O)CC(SC[C@H](NC(=O)[C@H](CCCNC(=N)N)NC(=O)[C@H](CCCNC(=N)N)NC(=O)[C@H](CCCNC(=N)N)NC(=O)[C@H](CCCNC(=N)N)NC(=O)[C@H](CCCNC(=N)N)NC(=O)[C@@H](N)CCCNC(=N)N)C(N)=O)C1=O (some centres unmarked) [CTZ-R6] | – | – | – | concentration‐dependent killing mechanism | – | – | < 2.7 × 10^−9 | most potent conjugates | 6 log units | accumulated in the liver and in the kidneys |
